Measured values from patent publication US12180192B2, “Modulators of THR-β and methods of use thereof” (ALIGOS THERAPEUTICS, INC., priority 2019, dated 2024).

Legend:
THR beta = target: T1, THR beta (Homo sapiens, UniProt P10828); test: HEK293T THR beta/RXR luciferase reporter assay (Assay 2); type: cell-based; settings: for Emax: HEK-293T, Table 5, Assay 2, THRβ, read-out: Activity category Assay 2 THRβ (Emax); for EC50: THR-beta, HEK293T reporter assay, read-out: Activity category Assay 2 (EC50, THR-beta agonist)
T1 construct: expressed in transfected cells; host or cells: HEK293T (ATCC CRL-3216)
T1 sequence (P10828 1-461): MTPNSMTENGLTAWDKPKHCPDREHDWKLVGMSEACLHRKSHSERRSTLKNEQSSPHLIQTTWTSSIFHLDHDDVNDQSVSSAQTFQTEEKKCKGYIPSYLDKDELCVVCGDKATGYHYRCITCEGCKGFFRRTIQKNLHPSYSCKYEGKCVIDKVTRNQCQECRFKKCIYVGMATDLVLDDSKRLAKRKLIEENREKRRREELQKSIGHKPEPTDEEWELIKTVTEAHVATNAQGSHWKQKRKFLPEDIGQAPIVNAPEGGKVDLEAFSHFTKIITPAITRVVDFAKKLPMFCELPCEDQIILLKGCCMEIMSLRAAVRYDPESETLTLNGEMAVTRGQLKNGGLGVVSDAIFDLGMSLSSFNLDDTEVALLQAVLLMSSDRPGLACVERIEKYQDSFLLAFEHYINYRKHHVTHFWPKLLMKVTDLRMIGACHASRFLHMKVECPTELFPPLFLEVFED
T1 sequence (P19793 1-462 partner): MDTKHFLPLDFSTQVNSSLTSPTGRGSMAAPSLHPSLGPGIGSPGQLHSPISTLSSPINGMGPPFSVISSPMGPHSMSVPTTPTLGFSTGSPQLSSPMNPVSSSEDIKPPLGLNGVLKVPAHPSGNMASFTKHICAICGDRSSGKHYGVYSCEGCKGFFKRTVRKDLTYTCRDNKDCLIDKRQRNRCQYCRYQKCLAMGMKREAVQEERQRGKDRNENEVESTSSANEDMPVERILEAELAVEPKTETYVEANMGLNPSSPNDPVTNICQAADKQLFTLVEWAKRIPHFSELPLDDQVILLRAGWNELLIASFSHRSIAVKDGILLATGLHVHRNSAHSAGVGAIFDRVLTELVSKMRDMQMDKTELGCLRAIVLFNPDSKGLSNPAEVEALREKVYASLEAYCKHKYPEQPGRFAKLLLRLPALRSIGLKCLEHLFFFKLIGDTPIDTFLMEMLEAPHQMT
Method in brief: (§1)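 Compounds tested as ten-point five-fold dilution series for 18-24 h on transiently transfected HEK293T cells carrying TRE-driven luciferase plus RXR and either THR alpha or beta expression plasmids. Read-out by One-Glo luminescence, expressed as percent agonism relative to negative and positive controls.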

THR alpha = target: T2, THR alpha (Homo sapiens, UniProt P10827); test: HEK293T THR alpha/RXR luciferase reporter assay (Assay 2); type: cell-based; settings: Assay 2; for Emax: HEK-293T, Table 5, THRα, read-out: Activity category Assay 2 THRα (Emax); for EC50: Table 4, THR-alpha, read-out: Activity category Assay 2 (EC50, THR-alpha agonist activity)
T2 construct: expressed in transfected cells; host or cells: HEK293T (ATCC CRL-3216)
T2 sequence (P10827 1-410 isoform P10827-2): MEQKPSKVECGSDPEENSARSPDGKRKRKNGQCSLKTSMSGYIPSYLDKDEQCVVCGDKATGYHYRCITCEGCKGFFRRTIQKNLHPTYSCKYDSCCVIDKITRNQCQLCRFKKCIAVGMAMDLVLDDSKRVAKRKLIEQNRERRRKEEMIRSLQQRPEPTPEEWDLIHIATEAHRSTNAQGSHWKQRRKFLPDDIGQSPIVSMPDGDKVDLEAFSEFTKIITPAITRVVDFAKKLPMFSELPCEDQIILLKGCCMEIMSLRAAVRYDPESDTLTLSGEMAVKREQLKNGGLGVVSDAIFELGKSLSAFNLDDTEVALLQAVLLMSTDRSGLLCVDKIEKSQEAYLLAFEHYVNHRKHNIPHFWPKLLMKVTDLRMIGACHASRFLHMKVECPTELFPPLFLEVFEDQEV
T2 sequence (P19793 1-462 partner): T1 sequence (P19793 1-462 partner)
Method in brief: as §1

Row | Emax (THR beta) [%] | EC50 (THR beta) [nM] | Emax (THR alpha) [%] | EC50 (THR alpha) [nM] | SMILES
1 | 50 to 75 | 50 to 250 | < 50 | > 10000 | Nc1nn(-c2cc(Cl)c(Oc3n[nH]c(=O)cc3-c3ccc4c(c3)CCCC4)c(Cl)c2)c(=O)[nH]c1=O [Compound 72-A, 6-amino-2-(3,5-dichloro-4-[[6-oxo-4-(5,6,7,8-tetrahydronaphthalen-2-yl)-1H-pyridazin-3-yl]oxy]phenyl)-4H-1,2,4-triazine-3,5-dione]
2 | 50 to 75 |  | < 50 | > 10000 | CC(C)c1n[nH]c2nnc(Oc3c(Cl)cc(-n4nc(C#N)c(=O)[nH]c4=O)cc3Cl)cc12 [Compound 75A, 2-(3,5-Dichloro-4-((3-isopropyl-1H-pyrazolo[3,4-c]pyridazin-5-yl)oxy)phenyl)-3,5-dioxo-2,3,4,5-tetrahydro-1,2,4-triazine-6-carbonitrile]
3 | 50 to 75 | < 50 | > 75 | < 50 | Nc1nn(-c2cc(Cl)c(Oc3ccc4c(c3)C3(CCCC3)C(=O)N4)c(Cl)c2)c(=O)[nH]c1=O [Compound 83]
4 | 50 to 75 |  | < 50 | 1000 to 10000 | CC1(C)CC(c2cc(Oc3c(Cl)cc(-n4nc(N)c(=O)[nH]c4=O)cc3Cl)n[nH]c2=O)C1 [Compound 89, 6-Amino-2-(3,5-dichloro-4-((5-(3,3-dimethylcyclobutyl)-6-oxo-1,6-dihydropyridazin-3-yl)oxy)phenyl)-1,2,4-triazine-3,5(2H,4H)-dione]
5 | 50 to 75 | > 10000 | < 50 | > 10000 | Cc1cc(-n2nc(C#N)c(=O)[nH]c2=O)cc(C)c1Cc1ccc2[nH]c(=O)cc(C(C)C)c2c1 [Compound 90, 2-(4-((4-Isopropyl-2-oxo-1,2-dihydroquinolin-6-yl)methyl)-3,5-dimethylphenyl)-3,5-dioxo-2,3,4,5-tetrahydro-1,2,4-triazine-6-carbonitrile]
6 | 50 to 75 | 250 to 1000 | < 50 | 1000 to 10000 | Nc1nn(-c2cc(Cl)c(Oc3cc(C4CC5(CC5)C4)c(=O)[nH]n3)c(Cl)c2)c(=O)[nH]c1=O [Compound 93]
7 | 50 to 75 | 50 to 250 | < 50 | 1000 to 10000 | Nc1nn(-c2cc(Cl)c(Oc3cc(C4CC5(CCC5)C4)c(=O)[nH]n3)c(Cl)c2)c(=O)[nH]c1=O [Compound 94]
8 | 50 to 75 | 50 to 250 | < 50 | 50 to 250 | Nc1nn(-c2cc(Cl)c(Oc3cc(C45CCC(C4)C5)c(=O)[nH]n3)c(Cl)c2)c(=O)[nH]c1=O [Compound 101]
9 | < 50 | 50 to 250 | < 50 | 1000 to 10000 | Cc1ccc(-c2cc(Oc3c(Cl)cc(-n4nc(N)c(=O)[nH]c4=O)cc3Cl)n[nH]c2=O)cc1C [Compound 112]
10 | < 50 | 250 to 1000 | < 50 | > 10000 | Nc1nn(-c2cc(Cl)c(Oc3cc(-c4ccc5c(c4)CCCO5)c(=O)[nH]n3)c(Cl)c2)c(=O)[nH]c1=O [Compound 114]
11 | < 50 | 250 to 1000 | < 50 | > 10000 | Nc1nn(-c2cc(Cl)c(Oc3n[nH]c(=O)cc3-c3ccc4c(c3)CCCO4)c(Cl)c2)c(=O)[nH]c1=O [Compound 115]
12 | 50 to 75 | 1000 to 10000 | 50 to 75 | 1000 to 10000 | CC(C)Nc1n[nH]c2ccc(Oc3c(Cl)cc(-n4nc(C#N)c(=O)[nH]c4=O)cc3Cl)cc12 [Compound 145, 2-(3,5-dichloro-4-((3-(isopropylamino)-1H-indazol-5-yl)oxy)phenyl)-3,5-dioxo-2,3,4,5-tetrahydro-1,2,4-triazine-6-carbonitrile]
13 | 50 to 75 | < 50 | < 50 | 50 to 250 | CC(C)c1cc(=O)[nH]c2ccc(Oc3c(Cl)cc(-n4nc(N)c(=O)[nH]c4=O)cc3Cl)cc12 [Compound 146, 6-amino-2-[3,5-dichloro-4-[(4-isopropyl-2-oxo-1H-quinolin-6-yl)oxy]phenyl]-1,2,4-triazine-3,5-dione]
14 | 50 to 75 | 1000 to 10000 | < 50 | 1000 to 10000 | Cc1cc(-n2nc(C#N)c(=O)[nH]c2=O)cc(C)c1Cc1ccc2c(c1)C1(CC1)C(=O)N2 [Compound 148, 2-(3,5-dimethyl-4-((2′-oxospiro[cyclopropane-1,3′-indolin]-5′-yl)methyl)phenyl)-3,5-dioxo-2,3,4,5-tetrahydro-1,2,4-triazine-6-carbonitrile]
15 | 50 to 75 | < 50 | 50 to 75 | < 50 | Cc1cc(-n2nc(N)c(=O)[nH]c2=O)cc(C)c1Cc1ccc2c(c1)C1(CC1)C(=O)N2 [Compound 151, 6-Amino-2-(3,5-dimethyl-4-((2′-oxospiro[cyclopropane-1,3′-indolin]-5′-yl)methyl)phenyl)-1,2,4-triazine-3,5(2H,4H)-dione]
16 | > 75 | < 50 | 50 to 75 | 50 to 250 | Cc1cc(-n2nc(N)c(=O)[nH]c2=O)cc(C)c1Cc1cc2c(C(C)C)c[nH]c2cn1 [Compound 157, 6-amino-2-[4-[(3-isopropyl-1H-pyrrolo[2,3-c]pyridin-5-yl)methyl]-3,5-dimethyl-phenyl]-1,2,4-triazine-3,5-dione]
17 | 50 to 75 | 50 to 250 | < 50 | 1000 to 10000 | Nc1nn(-c2cc(Cl)c(Oc3cc(C4Cc5ccccc54)c(=O)[nH]n3)c(Cl)c2)c(=O)[nH]c1=O (stereo not drawn) [Compound 158]
